{
  "source": "paper PMC4354951",
  "about": "(European journal of medicinal chemistry, 2008)",
  "key": {"P2X2/3Rs": {"system": "P2X2/3Rs", "conditions": "cited from earlier work"}, "P2X1R": {"system": "P2X1R", "conditions": "cited from earlier work"}, "P2Y1R": {"system": "P2Y1R", "conditions": "cited from earlier work"}, "ecto-5′-nucleotidases": {"system": "ecto-5′-nucleotidases", "conditions": "muscle strip preparations, 60 min incubation ref 21; cited from earlier work"}, "[1]": {"system": "1321N1 astrocytoma and C6 glioma cells", "conditions": "via NPPs and CD73 ref 39; cited from earlier work"}, "human P2Y4 receptor": {"biological_target": "human P2Y4 receptor (Homo sapiens, UniProt P51582)", "sequence (P51582 whole entry)": "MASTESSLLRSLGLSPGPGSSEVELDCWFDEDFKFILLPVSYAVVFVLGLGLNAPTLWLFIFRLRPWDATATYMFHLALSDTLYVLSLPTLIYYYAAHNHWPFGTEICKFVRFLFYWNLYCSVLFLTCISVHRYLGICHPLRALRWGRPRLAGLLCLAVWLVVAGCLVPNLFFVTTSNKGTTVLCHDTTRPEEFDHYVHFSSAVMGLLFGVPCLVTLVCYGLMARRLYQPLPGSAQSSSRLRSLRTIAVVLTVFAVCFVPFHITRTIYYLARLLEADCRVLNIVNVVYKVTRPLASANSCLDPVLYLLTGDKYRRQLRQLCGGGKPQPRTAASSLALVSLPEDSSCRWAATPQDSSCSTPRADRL", "assay": "Increase in [Ca2+]i in 1321N1 astrocytoma cells expressing P2Y4 receptor", "type": "cell-based"}, "rat P2Y6 receptor": {"biological_target": "rat P2Y6 receptor (Rattus norvegicus, UniProt Q63371)", "sequence (Q63371 whole entry)": "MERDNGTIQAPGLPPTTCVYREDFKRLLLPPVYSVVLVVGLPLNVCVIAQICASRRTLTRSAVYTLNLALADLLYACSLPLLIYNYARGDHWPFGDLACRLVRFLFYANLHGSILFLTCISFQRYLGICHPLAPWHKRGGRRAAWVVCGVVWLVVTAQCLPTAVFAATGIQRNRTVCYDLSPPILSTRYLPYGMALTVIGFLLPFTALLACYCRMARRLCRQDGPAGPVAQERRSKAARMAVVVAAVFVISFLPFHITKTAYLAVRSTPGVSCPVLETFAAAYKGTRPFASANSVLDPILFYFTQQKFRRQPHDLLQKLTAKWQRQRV", "assay": "Increase in [Ca2+]i in 1321N1 astrocytoma cells expressing P2Y6 receptor", "type": "cell-based"}, "human NTPDase1": {"biological_target": "T1, human NTPDase1 (Homo sapiens, UniProt P49961)", "T1 sequence (P49961 1-510)": "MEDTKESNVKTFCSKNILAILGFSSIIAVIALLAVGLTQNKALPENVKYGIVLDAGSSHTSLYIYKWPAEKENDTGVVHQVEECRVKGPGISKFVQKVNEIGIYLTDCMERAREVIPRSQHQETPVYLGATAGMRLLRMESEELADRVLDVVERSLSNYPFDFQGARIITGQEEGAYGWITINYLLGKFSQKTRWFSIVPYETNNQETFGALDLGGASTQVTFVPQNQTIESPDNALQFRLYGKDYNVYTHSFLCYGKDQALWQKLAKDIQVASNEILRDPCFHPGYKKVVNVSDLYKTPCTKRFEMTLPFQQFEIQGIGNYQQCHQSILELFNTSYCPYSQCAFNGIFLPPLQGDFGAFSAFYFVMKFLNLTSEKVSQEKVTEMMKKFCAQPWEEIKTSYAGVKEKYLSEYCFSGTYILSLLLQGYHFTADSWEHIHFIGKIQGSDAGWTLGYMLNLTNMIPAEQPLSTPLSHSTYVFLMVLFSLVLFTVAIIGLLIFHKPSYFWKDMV", "assay": "Hydrolysis by NTPDase1", "type": "biochemical", "conditions": "100 μM substrate; relative to ATP hydrolysis (100%)"}, "human P2Y2 receptor": {"biological_target": "human P2Y2 receptor (Homo sapiens, UniProt P41231)", "sequence (P41231 whole entry)": "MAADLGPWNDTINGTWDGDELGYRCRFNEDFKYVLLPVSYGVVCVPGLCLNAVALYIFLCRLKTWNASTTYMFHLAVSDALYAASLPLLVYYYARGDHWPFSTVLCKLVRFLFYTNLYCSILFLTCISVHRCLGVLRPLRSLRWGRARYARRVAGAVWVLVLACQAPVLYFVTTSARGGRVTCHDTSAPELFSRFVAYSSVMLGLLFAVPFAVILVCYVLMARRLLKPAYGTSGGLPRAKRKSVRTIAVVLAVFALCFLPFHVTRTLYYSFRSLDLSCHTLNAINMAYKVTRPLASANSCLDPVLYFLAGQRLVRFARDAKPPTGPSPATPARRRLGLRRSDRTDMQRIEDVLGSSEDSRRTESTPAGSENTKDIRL", "assay": "Increase in [Ca2+]i in 1321N1 astrocytoma cells expressing P2Y2 receptor", "type": "cell-based"}, "[2]": {"assay": "Chemical hydrolysis under gastric juice-like conditions", "type": "physicochemical", "conditions": "pH 1.4, 37 °C"}, "human NTPDase3": {"biological_target": "T2, human NTPDase3 (Homo sapiens, UniProt O75355)", "T2 sequence (O75355 1-529)": "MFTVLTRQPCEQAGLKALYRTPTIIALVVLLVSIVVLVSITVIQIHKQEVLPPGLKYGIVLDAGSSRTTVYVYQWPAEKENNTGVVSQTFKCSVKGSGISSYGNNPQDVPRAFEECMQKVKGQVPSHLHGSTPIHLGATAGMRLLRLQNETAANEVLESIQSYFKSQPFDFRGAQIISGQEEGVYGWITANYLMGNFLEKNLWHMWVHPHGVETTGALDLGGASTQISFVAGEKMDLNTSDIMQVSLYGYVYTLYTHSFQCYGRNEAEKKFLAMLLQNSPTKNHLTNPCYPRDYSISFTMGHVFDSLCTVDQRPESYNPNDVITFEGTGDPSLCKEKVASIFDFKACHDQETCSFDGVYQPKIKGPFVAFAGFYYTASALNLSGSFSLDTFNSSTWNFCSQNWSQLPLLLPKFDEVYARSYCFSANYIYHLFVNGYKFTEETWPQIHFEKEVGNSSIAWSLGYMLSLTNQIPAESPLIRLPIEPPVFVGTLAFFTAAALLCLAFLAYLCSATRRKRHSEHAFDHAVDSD", "assay": "Hydrolysis by NTPDase3", "type": "biochemical", "conditions": "100 μM substrate; relative to ATP hydrolysis (100%)"}, "[3]": {"assay": "Stability in human blood serum, Method A", "type": "in vitro ADME", "conditions": "half-life vs ATP"}, "[4]": {"assay": "pKa and degree of ionization of phosphate/phosphonate", "type": "physicochemical", "conditions": "physiological conditions, pH 7.4"}, "human NTPDase8": {"biological_target": "T3, human NTPDase8 (Homo sapiens, UniProt Q5MY95)", "T3 sequence (Q5MY95 1-495)": "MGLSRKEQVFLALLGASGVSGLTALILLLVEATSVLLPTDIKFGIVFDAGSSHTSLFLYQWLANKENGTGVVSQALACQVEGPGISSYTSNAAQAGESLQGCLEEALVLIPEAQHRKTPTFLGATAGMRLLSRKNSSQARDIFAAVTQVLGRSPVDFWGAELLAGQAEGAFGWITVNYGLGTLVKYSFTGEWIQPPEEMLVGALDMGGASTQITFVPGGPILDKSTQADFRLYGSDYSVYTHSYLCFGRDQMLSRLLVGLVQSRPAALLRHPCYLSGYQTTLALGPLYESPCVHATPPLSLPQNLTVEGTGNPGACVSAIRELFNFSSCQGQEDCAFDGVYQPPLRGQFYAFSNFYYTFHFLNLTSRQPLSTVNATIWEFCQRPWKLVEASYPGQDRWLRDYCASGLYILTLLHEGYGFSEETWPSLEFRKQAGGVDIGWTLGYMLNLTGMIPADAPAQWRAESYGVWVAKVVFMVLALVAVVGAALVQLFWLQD", "assay": "Hydrolysis by NTPDase8", "type": "biochemical", "conditions": "100 μM substrate; relative to ATP hydrolysis (100%)"}, "turkey P2Y1 receptor": {"biological_target": "turkey P2Y1 receptor (Meleagris gallopavo, UniProt P49652)", "sequence (P49652 whole entry)": "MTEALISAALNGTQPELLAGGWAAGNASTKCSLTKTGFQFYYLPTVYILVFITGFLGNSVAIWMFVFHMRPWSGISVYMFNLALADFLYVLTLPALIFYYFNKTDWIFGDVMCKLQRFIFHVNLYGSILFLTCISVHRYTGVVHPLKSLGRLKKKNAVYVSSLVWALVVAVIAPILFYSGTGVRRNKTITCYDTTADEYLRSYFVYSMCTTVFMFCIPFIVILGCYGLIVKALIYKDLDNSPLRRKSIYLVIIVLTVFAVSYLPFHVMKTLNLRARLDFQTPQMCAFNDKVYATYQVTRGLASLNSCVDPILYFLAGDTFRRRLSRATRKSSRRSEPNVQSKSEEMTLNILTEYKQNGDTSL", "type": "cell-based", "conditions": "1321N1 cell transfectants"}, "[5]": {"conditions": "physiological pH ref 30; cited from earlier work"}, "[6]": {"conditions": "pH 1.4, 37 °C ref 30; cited from earlier work"}, "perfused rat pancreas": {"system": "perfused rat pancreas", "conditions": "perfused rat pancreas ref 31, cited from earlier work"}, "P2Y2R": {"system": "P2Y2R", "conditions": "cited from earlier work"}},
  "data": [
    {"compound": "Nc1ncnc2c1ncn2[C@@H]1O[C@H](COP(=O)(O)OP(=O)(O)CP(=O)(O)O)[C@@H](O)[C@H]1O", "note": "[β,γ-CH2–ATP]", "values": [
      {"measurement": "activity at P2X2/3Rs", "setting": "P2X2/3Rs", "value": "weak agonist"},
      {"measurement": "activity at P2X1R", "setting": "P2X1R", "value": "P2X1R agonist"},
      {"measurement": "activation of P2Y1Rs", "setting": "P2Y1R", "value": "did not activate"},
      {"measurement": "antagonism at P2Y1R", "setting": "P2Y1R; responses elicited by 2-MeS–ADP ref 48", "value": "weak competitive antagonist"},
      {"measurement": "degradation by ecto-5′-nucleotidases", "setting": "ecto-5′-nucleotidases", "value": "no degradation"},
      {"measurement": "metabolism in cells", "setting": "[1]", "value": "rapidly metabolized to adenosine"}
    ]},
    {"compound": "CSc1nc(N)c2ncn([C@@H]3O[C@H](COP(=O)(O)OP(=O)(O)CP(=O)(O)O)[C@@H](O)[C@H]3O)c2n1", "note": "[compound 2, 2-MeS–adenosine-5′-O-triphosphate-β,γ-CH2]", "values": [
      {"measurement": "EC50", "setting": "human P2Y4 receptor", "value": "> 100", "unit": "µM"},
      {"measurement": "EC50", "setting": "rat P2Y6 receptor", "value": "> 100", "unit": "µM"},
      {"measurement": "Relative activity of NTPDase1", "setting": "human NTPDase1", "value": "7–8%"},
      {"measurement": "EC50", "setting": "human P2Y2 receptor", "value": "> 100", "unit": "µM"},
      {"measurement": "agonist activity at P2Y2R", "setting": "human P2Y2 receptor; 1321N1 cell transfectants", "value": "inactivity"},
      {"measurement": "improvement of chemical stability as compared to 1", "setting": "[2]", "value": "~11", "unit": "fold"},
      {"measurement": "Relative activity of NTPDase3", "setting": "human NTPDase3", "value": "7–8%"},
      {"measurement": "enhancement of the metabolic stability of ATP", "setting": "[3]", "value": "≥ 3.5", "unit": "fold"},
      {"measurement": "fraction ionized", "setting": "[4]", "value": 9, "unit": "%"},
      {"measurement": "Relative activity of NTPDase8", "setting": "human NTPDase8", "value": "7–8%"},
      {"measurement": "agonist activity at P2Y1R", "setting": "turkey P2Y1 receptor", "value": "potent P2Y1R agonists"},
      {"measurement": "degradation by ecto-5′-nucleotidases", "setting": "ecto-5′-nucleotidases", "value": "no degradation"}
    ]},
    {"compound": "2-MeS–ATP-α-B [compound 1]", "values": [
      {"measurement": "t1/2 at physiological pH", "setting": "[5]", "value": 1395, "unit": "h"},
      {"measurement": "t1/2 of acidic hydrolysis", "setting": "[6]", "value": 5.9, "unit": "h"},
      {"measurement": "enhancement of insulin secretion as compared to basal secretion", "setting": "perfused rat pancreas", "value": "ninefold"},
      {"measurement": "EC50", "setting": "perfused rat pancreas; read-out: EC50 of insulin secretion", "value": 0.028, "unit": "µM"},
      {"measurement": "activity at P2Y2R", "setting": "P2Y2R", "value": "very weak agonists"}
    ]}
  ]
}
